# Measured values published in patent US4039540A, “3-Substituted quinoxaline-2-carboxamide-1,4-dioxides” (Pfizer Inc., priority 1975, dated 1977).
# Read-outs that look alike come from different tables or passages of the source.
# Experiments:
# [1] = test system: pathogenic bacteria; test: in vivo activity in infected mice, last four lines of the table; settings: bacterium and dose in drawing 28, not readable; for IN VIVO number of survivors among the treated animals (head drawing 28): subcutaneous
# Protocol: (§1) In determining the in vivo activity of the quinoxaline-1,4-dioxides of this invention, the test compound is administered to mice which have been infected by […] injection of a lethal inoculum of pathogenic bacteria. The test compound is administered using a multiple dosing regimen and using either the oral (PO) or the subcutaneous (SC) route. The inoculum of bacteria varies from about 1 to about 10 times the amount needed to kill 100% of the mice under the conditions of the test. At the end of the test, the activity of the compound is assessed by counting the number of survivors among the treated animals.
# (§2) In vitro and in vivo activity of representative compounds of this invention, determined as aforesaid, are reported in the following tabulation for compounds of the formula: [drawing 12]
# [2] = test system: Strep. pyrogens; test: in vitro antibacterial activity, two-fold serial dilution in Brain-Heart Infusion Broth (MIC); format: cell-based; settings: overnight, anaerobic
# Protocol: (§3) The broth is inoculated with bacteria and with the test quinoxaline-1,4-dioxide and then it is incubated overnight under anerobic conditions. On the next day, the test is read visually. The minimum inhibitory concentration (MIC) of test compound is the lowest concentration which prevents turbidity, i.e., which prevents growth of the microorganism.
# as §2
# [3] = test system: E. coli; test: as above; format: cell-based; settings: Escherichia coli, overnight, anaerobic
# Protocol: as §3, §2
# [4] = test system: Strep. pyogenes; test: in vivo activity in mice infected with a lethal inoculum of Strep. pyogenes; settings: Streptococcus pyogenes, multiple dosing
# Protocol: as §1, §2
# [5] = test system: E. coli; test: in vivo activity in mice infected with a lethal inoculum of E. coli; settings: Escherichia coli, sc, subcutaneous, multiple dosing, read-out: IN VIVO E. coli, number of survivors among the treated animals
# Protocol: as §1, §2
# [6] = oral, read-out: IN VIVO Strep. pyogenes, number of survivors among the treated animals, PO (data in parenthesis)
# [7] = sc, subcutaneous, read-out: IN VIVO Strep. pyogenes, number of survivors among the treated animals
Compound,"IN VIVO number of survivors among the treated animals, PO (data in parenthesis; head drawing 28) [1]",IN VIVO number of survivors among the treated animals (head drawing 28) [1],MIC [2] [mg/L],MIC [3] [mg/L],"responders at 50 mg/kg [4, 6] [%]","responders at 50 mg/kg [4, 7] [%]",responders at 25 mg/kg [5] [%]
CN(C)C(=O)c1c(CS(=O)(=O)CCCCN2CCCCC2)[n+]([O-])c2ccccc2[n+]1[O-] [N(CH3)2; drawing 30; H],1/10,8/10,6.25,12.5,–,–,–
CNC(=O)c1c(CS(=O)(=O)CCCCN2CCCCC2)[n+]([O-])c2ccccc2[n+]1[O-] [NHCH3; drawing 29; H],7/10,10/10,6.25,12.5,–,–,–
CCCNC(=O)c1c(CS(=O)(=O)CCCOC(C)=O)[n+]([O-])c2ccccc2[n+]1[O-] [NHCH2 CH2 CH3; SO2 CH2 CH2 CH2 OAc; H],–,–,50,200,0,30,0
CCCNC(=O)c1c(CS(=O)(=O)CCO)[n+]([O-])c2ccccc2[n+]1[O-] [NHPr; SO2 CH2 CH2 OH; H],–,–,3.12,3.12,70,40,20
O=C(NCCCO)c1c(CS(=O)(=O)CCO)[n+]([O-])c2ccccc2[n+]1[O-] [NHCH2 CH2 CH2 OH; SO2 CH2 CH2 OH; H],–,–,12.5,100,50,40,0
CCCNC(=O)c1c(CS(=O)(=O)CCCN(C)C)[n+]([O-])c2ccccc2[n+]1[O-] [NHCH2 CH2 CH3; SO2 (CH2)3 N(CH3)2; H],–,–,25,25,80,100,20
NC(=O)c1c(CS(=O)(=O)CCCN2CCOCC2)[n+]([O-])c2ccccc2[n+]1[O-] [NH2; drawing 20; H],–,–,12.5,12.5,60,100,20
CCNC(=O)c1c(CS(=O)(=O)CCCN(C)C)[n+]([O-])c2ccccc2[n+]1[O-] [NHCH2 CH3; SO2 (CH2)3 N(CH3)2; H],–,–,1.56,12.5,100,100,100
CN(C)CCNC(=O)c1c(CS(=O)(=O)CCO)[n+]([O-])c2ccccc2[n+]1[O-] [NHCH2 CH2 N(CH3)2; SO2 CH2 CH2 OH; H],–,–,100,50,–,20,0
CCNC(=O)c1c(CSCCO)[n+]([O-])c2ccccc2[n+]1[O-] [NHCH2 CH3; SCH2 CH2 OH; H],–,–,3.12,6.25,20,20,40
CCNC(=O)c1c(CS(=O)(=O)CCO)[n+]([O-])c2ccccc2[n+]1[O-] [NHEt; SO2 CH2 CH2 OH; H],–,–,1.56,6.25,80,60,90
NC(=O)c1c(CS(=O)(=O)CCO)[n+]([O-])c2ccccc2[n+]1[O-] [NH2; SO2 CH2 CH2 OH; H],–,–,6.25,12.5,80,40,0
CCNC(=O)c1c(CSCCCOC(C)=O)[n+]([O-])c2ccccc2[n+]1[O-] [NHCH2 CH3; SCH2 CH2 CH2 OAc; H],–,–,3.12,25,20,10,0
NC(=O)c1c(CS(=O)(=O)CCCN2CCCCC2)[n+]([O-])c2ccccc2[n+]1[O-] [NH2; drawing 24; H],–,–,6.25,6.25,40,100,100
CC(=O)OCCCSCc1c(C(=O)NCCO)[n+]([O-])c2ccccc2[n+]1[O-] [NHCH2 CH2 OH; S(CH2)3 OAc; H],–,–,6.25,100,30,10,30
CNC(=O)c1c(CS(=O)(=O)CCCO)[n+]([O-])c2ccccc2[n+]1[O-] [NHMe; SO2 CH2 CH2 CH2 OH; H],–,–,3.12,12.5,30,90,70
COCCNC(=O)c1c(CS(=O)(=O)CCCOC(C)=O)[n+]([O-])c2ccccc2[n+]1[O-] [NHCH2 CH2 OCH3; SO2 CH2 CH2 CH2 OAc; H],–,–,12.5,100,10,20,10
O=C(NCCO)c1c(CSCCO)[n+]([O-])c2ccccc2[n+]1[O-] [NHCH2 CH2 OH; SCH2 CH2 OH; H],–,–,12.5,50,50,30,0
CCN(CC)CCCNC(=O)c1c(CS(=O)(=O)CCO)[n+]([O-])c2ccccc2[n+]1[O-] [NH(CH2)3 N(Et)2; SO2 CH2 CH2 OH; H],–,–,200,> 200,–,10,50
CNC(=O)c1c(CS(=O)(=O)CCO)[n+]([O-])c2ccccc2[n+]1[O-] [NHCH3; SO2 CH2 CH2 OH; H],–,–,1.56,0.781,40,80,100
CCSCCNC(=O)c1c(CS(=O)(=O)CCO)[n+]([O-])c2ccccc2[n+]1[O-] [NHCH2 CH2 SCH2 CH3; SO2 CH2 CH2 OH; H],–,–,1.56,100,0,10,50
CNC(=O)c1c(CS(=O)(=O)CCCN2CCCCC2)[n+]([O-])c2ccccc2[n+]1[O-] [NHCH3; drawing 23; H],–,–,6.25,6.25,70,100,100
CCNC(=O)c1c(CS(=O)(=O)CCCCN2CCCCC2)[n+]([O-])c2ccccc2[n+]1[O-] [NHCH2 CH3; drawing 32; H],7/10,4/10,6.25,12.5,–,–,–
CCNC(=O)c1c(CS(=O)(=O)CCCO)[n+]([O-])c2ccccc2[n+]1[O-] [NHCH2 CH3; SO2 CH2 CH2 CH2 OH; H],–,–,< 0.39,6.25,20,80,10
NC(=O)c1c(CS(=O)(=O)CCCCN2CCCCC2)[n+]([O-])c2ccccc2[n+]1[O-] [NH2; drawing 31; H],0/10,9/10,12.5,25,–,–,–
CNC(=O)c1c(CSCCO)[n+]([O-])c2ccccc2[n+]1[O-] [NHMe; SCH2 CH2 OH; H],–,–,0.781,0.781,60,100,100
CCOC(=O)CSCc1c(C(=O)NC)[n+]([O-])c2ccccc2[n+]1[O-] [NHCH3; SCH2 CO2 Et; H],–,–,12.5,12.5,0,0,30
CNC(=O)c1c(CSCCCO)[n+]([O-])c2ccccc2[n+]1[O-] [NHMe; SCH2 CH2 CH2 OH; H],–,–,1.56,12.5,10,0,20
CN(C)C(=O)c1c(CS(=O)(=O)CCCN2CCCCC2)[n+]([O-])c2ccccc2[n+]1[O-] [N(CH3)2; drawing 27; H],–,–,3.12,3.12,100,100,90
